# Results as given in patent US20140073694A1, “CYSTAMINE ANALOGUES FOR THE TREATMENT OF PARKINSON'S DISEASE” (UNIVERSITE LAVAL, priority 2011, published 2014).
# What was measured:
# [1] = set-up: species or system C57BL/6 mice; conditions: in vivo, ip, 200 mg/kg
# Experimental: Young adult (9-week old, 25 g) male C57BL/6 mice were purchased from Charles River Laboratories (Montréal, QC, Canada). Animals were housed four per cage under standard conditions with free access to food and water, randomized and handled under the same conditions by one investigator. All experiments were performed in accordance with the Canadian Council on Animal Care and were approved by the Institutional Committee of the Centre Hospitalier de l'Université Laval (CHUL). Throughout the experiment, the health status of all mice included in the study was closely monitored. To clearly identify the active intermediate following cystamine injection, as well as to understand its systemic and cerebral metabolism, a single intraperitoneal (i.p.) injection of cystamine was administered to normal adult C57BL/6 male mice using three different doses: 10, 50, and 200 mg/kg, as determined in prior publications (Tremblay et al. 2006; Gibrat et al. 2010). These doses were ultimately compared with saline injections. Cystamine was dissolved in sterile saline (0.9%) and injected 1, 3, 12, 24 and 48 h before killing. Animals were sacrificed under deep anesthesia with ketamine/xylazine and perfused via intracardiac infusion with 0.1 M phosphate-buffered saline. […]
# [2] = tested on: 6-OHDA lesioned mice; test: Unilateral striatal 6-OHDA mouse model, neurorescue experiment; format: in vivo, C57BL/6 mice; conditions: 10 mg/kg daily for 14 days from 3 days post-lesion
# Experimental: Young adult (9-week old, 25 grams) male C57BL/6 mice were purchased from Charles River Laboratories (Montréal, QC, Canada). Animals were housed 4 per cage under standard conditions with free access to food and water, randomized and handled under the same conditions by one investigator. All experiments were performed in accordance with the Canadian Council on Animal Care and were approved by the Institutional Committee of the Centre Hospitalier de l'Université Laval (CHUL). Throughout the experiment, the health status of all mice included in the study was closely monitored for weight loss or other signs of health-related issues. All efforts were made to minimize animal pain and discomfort.
# This protocol was based on the unilateral stereotaxic intra-striatal injection of 6-hydroxydopamine (6-OHDA). Intrastriatal administration of 6-OHDA creates a progressive and retrograde degenerative changes in DA neurons of the substantia nigra (Bjorklund et al., 1997; Costantini et al., 2001). Mice were anaesthetized using isoflurane and placed onto a stereotactic frame adapted for mice. 6-OHDA was dissolved at a concentration of 2 μg/μl in 0.9% saline and 0.02% ascorbic acid and 2 μl was injected in the right striatum at a rate of 0.5 μl/min. The needle was left in place for 3 min after the injection before retraction. The injection was performed using an Hamilton syringe according to the stereotaxic co-ordinates: AP: +0.04 cm, ML: −0.18 cm, DV: −0.31 cm (corresponding to the atlas of Allan P. 2008).
# To serve as controls, other mice were subjected to the same surgical procedures, but only 2 μl of solvent (0.9% saline and 0.02% ascorbic acid) was injected in the same coordinates. […]
# The effects of cystamine on the 6-OHDA toxicity were studied in the following experimental groups: Group I, Sham+Saline; Group II, 6-OHDA+Saline; Group III; Sham+Cystamine; Group IV, 6-OHDA+Cystamine. In total, 40 mice (n=10 per group) were utilized for each experiment, monitored daily for weight variation, and ultimately sacrificed by perfusion 24 hrs after the last cystamine (or vehicle) injection. […]
# Catecholamine quantification by HPLC, TH immunohistochemistry and in situ hybridization for Nurr1 and DAT were conducted as described in Example 1.
# Levels of autoradiographic labelling were quantified by computerized densitometry. […] Optical density of the autoradiograms was translated in μCi/g of tissue using ^14C radioactivity standards (ARC 146-^14C standards, American Radiolabelled Chemicals Inc., St. Louis, Mo.). Nurr1 and DAT mRNA levels were measured in the substantia nigra compacta (SNc) using similar antero-posterior levels for all sections. […]
smiles,measurement,setting,value
"NCCSSCCN [cystamine, Cystamine]",duration of hypothermia and somnolence signs,"[1]; male, C57BL/6, mouse",approximately 2 h
same,clinical signs,[1]; mouse,signs of hypothermia (shivering) and somnolence (closing of eyelids)
same,DAT mRNA levels in the SNpc (densitometry),[2],same pattern as observed for the TH staining
same,Nurr1 mRNA levels in the SNpc (densitometry),[2],same pattern as observed for the TH staining
same,striatal DA content by HPLC,[2]; vs control mice,significantly decreased levels of DA only in 6-OHDA mice treated with saline
same,decrease in the total number of TH-positive neurons in the SNpc,[2]; 6-OHDA+cystamine vs sham+cystamine,27%
